# From US6737383B1, “Herbicidal oxadiazolidines” (priority 1999, dated 2004)
# Key:
# [1] = tested on: cocklebur; experiment: Test B pre/postemergence cocklebur; type: in vivo, Xanthium strumarium; details: Preemergence
# Outline: (§1)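 Response is a visual 0-to-10 score relative to untreated plants, where 0 means no effect and 10 means complete control, taken twelve to sixteen days after application. Treatments went onto soil at planting and onto foliage of 1- to 4-leaf plants, using a surfactant-containing non-phytotoxic solvent.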
# [2] = tested on: crabgrass; experiment: Test B pre/postemergence crabgrass; type: in vivo, Digitaria sanguinalis; details: Preemergence
# Outline: as §1
# [3] = tested on: wild oat; experiment: Test B pre/postemergence wild oat; type: in vivo, Avena fatua; details: Preemergence
# Outline: as §1
# [4] = tested on: surinam grass; experiment: Test B pre/postemergence surinam grass; type: in vivo, Brachiaria decumbens; details: Preemergence
# Outline: as §1
# [5] = tested on: morningglory; experiment: Test B pre/postemergence morningglory; type: in vivo, Ipomoea hederacea; details: Preemergence
# Outline: as §1
# [6] = tested on: purple nutsedge; experiment: Test B pre/postemergence purple nutsedge; type: in vivo, Cyperus rotundus; details: Preemergence, scale of 0 to 10 where 0 is no effect and 10 is complete control; for Nutsedge plant response rating: Rate 62 g/ha
# Outline: as §1
# [7] = tested on: wheat; experiment: Test B pre/postemergence wheat; type: in vivo, Triticum aestivum; details: Preemergence
# Outline: as §1
# [8] = tested on: blackgrass; experiment: Test B pre/postemergence blackgrass; type: in vivo, Alopecurus myosuroides; details: Preemergence
# Outline: as §1
# [9] = tested on: soybean; experiment: Test B pre/postemergence soybean; type: in vivo, Glycine max; details: Preemergence
# Outline: as §1
# [10] = tested on: rape; experiment: Test B pre/postemergence rape; type: in vivo, Brassica napus; details: Preemergence
# Outline: as §1
# [11] = tested on: pigweed; experiment: Test B pre/postemergence pigweed; type: in vivo, Amaranthus retroflexus; details: Preemergence
# Outline: as §1
# [12] = tested on: corn; experiment: Test B pre/postemergence corn; type: in vivo, Zea mays; details: Preemergence
# Outline: as §1
# [13] = tested on: bedstraw; experiment: Test B pre/postemergence bedstraw; type: in vivo, Galium aparine; details: Preemergence
# Outline: as §1
# [14] = tested on: sugar beet; experiment: Test B pre/postemergence sugar beet; type: in vivo, Beta vulgaris; details: Preemergence
# Outline: as §1
# [15] = tested on: giant foxtail; experiment: Test B pre/postemergence giant foxtail; type: in vivo, Setaria faberii; details: Preemergence
# Outline: as §1
# [16] = tested on: velvetleaf; experiment: Test B pre/postemergence velvetleaf; type: in vivo, Abutilon theophrasti; details: Preemergence
# Outline: as §1
# [17] = Rate 62 g/ha, scale of 0 to 10 where 0 is no effect and 10 is complete control
# [18] = Rate 125 g/ha, scale of 0 to 10 where 0 is no effect and 10 is complete control
# [19] = Rate 250 g/ha, scale 0 to 10 (0 no effect, 10 complete control)
# [20] = Rate 500 g/ha, scale of 0 to 10 where 0 is no effect and 10 is complete control
compound,measurement,setting,value
CC(C)N(C(=O)n1oc(=O)n(CCF)c1=O)c1ccccc1 [Compound 669],Cocklebur plant response rating,[1]; [17],0
same,Cocklebur plant response rating,[1]; [18],0
same,"Plant response rating, Cocklebur",[1]; [19],0
same,"Plant response rating, Cocklebur",[1]; [20],0
same,Crabgrass plant response rating,[2]; [17],9
same,Crabgrass plant response rating,[2]; [18],9
same,"Plant response rating, Crabgrass",[2]; [19],9
same,"Plant response rating, Crabgrass",[2]; [20],10
same,Wild oats plant response rating,[3]; [17],10
same,Wild oats plant response rating,[3]; [18],10
same,"Plant response rating, Wild oats",[3]; [19],10
same,"Plant response rating, Wild oats",[3]; [20],10
same,B. signalgrass plant response rating,[4]; [17],8
same,B. signalgrass plant response rating,[4]; [18],8
same,"Plant response rating, B. signalgrass",[4]; [19],10
same,"Plant response rating, B. signalgrass",[4]; [20],10
same,Morningglory plant response rating,[5]; [17],0
same,Morningglory plant response rating,[5]; [18],0
same,"Plant response rating, Morningglory",[5]; [19],0
same,"Plant response rating, Morningglory",[5]; [20],0
same,Nutsedge plant response rating,[6],0
same,"Plant response rating, Nutsedge",[6]; Rate 500 g/ha,6
same,Wheat plant response rating,[7]; [17],6
same,Wheat plant response rating,[7]; [18],5
same,"Plant response rating, Wheat",[7]; [19],8
same,"Plant response rating, Wheat",[7]; [20],8
same,Blackgrass plant response rating,[8]; [17],9
same,Blackgrass plant response rating,[8]; [18],10
same,"Plant response rating, Blackgrass",[8]; [19],10
same,"Plant response rating, Blackgrass",[8]; [20],10
same,Soybean plant response rating,[9]; [17],0
same,Soybean plant response rating,[9]; [18],2
same,"Plant response rating, Soybean",[9]; [19],3
same,"Plant response rating, Soybean",[9]; [20],6
same,Rape plant response rating,[10]; [17],2
same,Rape plant response rating,[10]; [18],4
same,"Plant response rating, Rape",[10]; [19],8
same,"Plant response rating, Rape",[10]; [20],9
same,Redroot pigweed plant response rating,[11]; [17],6
same,Redroot pigweed plant response rating,[11]; [18],10
same,"Plant response rating, Redroot pigweed",[11]; [19],10
same,"Plant response rating, Redroot pigweed",[11]; [20],10
same,Corn plant response rating,[12]; [17],2
same,Corn plant response rating,[12]; [18],9
same,"Plant response rating, Corn",[12]; [19],9
same,"Plant response rating, Corn",[12]; [20],9
same,Bedstraw plant response rating,[13]; [17],0
same,Bedstraw plant response rating,[13]; [18],7
same,"Plant response rating, Bedstraw",[13]; [19],9
same,"Plant response rating, Bedstraw",[13]; [20],9
same,Sugarbeets plant response rating,[14]; [17],6
same,Sugarbeets plant response rating,[14]; [18],8
same,"Plant response rating, Sugarbeets",[14]; [19],8
same,"Plant response rating, Sugarbeets",[14]; [20],9
same,Giant foxtail plant response rating,[15]; [17],9
same,Giant foxtail plant response rating,[15]; [18],9
same,"Plant response rating, Giant foxtail",[15]; [19],10
same,"Plant response rating, Giant foxtail",[15]; [20],10
same,Velvetleaf plant response rating,[16]; [17],0
same,Velvetleaf plant response rating,[16]; [18],0
same,"Plant response rating, Velvetleaf",[16]; [19],0
same,"Plant response rating, Velvetleaf",[16]; [20],0
CCn1ncc(Cn2c(=O)on(C(=O)N(c3ccc(F)cc3F)C(C)C)c2=O)c1Cl [Compound 682],Cocklebur plant response rating,[1]; [17],0
same,"Plant response rating, Cocklebur",[1]; [18],0
same,"Plant response rating, Cocklebur",[1]; [19],0
same,"Plant response rating, Cocklebur",[1]; [20],0
same,Crabgrass plant response rating,[2]; [17],5
same,"Plant response rating, Crabgrass",[2]; [18],9
same,"Plant response rating, Crabgrass",[2]; [19],9
same,"Plant response rating, Crabgrass",[2]; [20],9
same,Wild oats plant response rating,[3]; [17],0
same,"Plant response rating, Wild oats",[3]; [18],0
same,"Plant response rating, Wild oats",[3]; [20],8
same,B. signalgrass plant response rating,[4]; [17],2
same,"Plant response rating, B. signalgrass",[4]; [18],6
same,"Plant response rating, B. signalgrass",[4]; [19],7
same,"Plant response rating, B. signalgrass",[4]; [20],8
same,Morningglory plant response rating,[5]; [17],0
same,"Plant response rating, Morningglory",[5]; [18],0
same,"Plant response rating, Morningglory",[5]; [20],3
same,Nutsedge plant response rating,[6],0
same,"Plant response rating, Nutsedge",[6]; Rate 125 g/ha,0
same,"Plant response rating, Nutsedge",[6]; Rate 500 g/ha,0
same,Wheat plant response rating,[7]; [17],0
same,"Plant response rating, Wheat",[7]; [18],0
same,"Plant response rating, Wheat",[7]; [20],0
same,Blackgrass plant response rating,[8]; [17],3
same,"Plant response rating, Blackgrass",[8]; [18],5
same,"Plant response rating, Blackgrass",[8]; [19],8
same,"Plant response rating, Blackgrass",[8]; [20],9
same,Soybean plant response rating,[9]; [17],0
same,"Plant response rating, Soybean",[9]; [18],0
same,"Plant response rating, Soybean",[9]; [20],0
same,Rape plant response rating,[10]; [17],0
same,"Plant response rating, Rape",[10]; [18],0
same,"Plant response rating, Rape",[10]; [20],7
same,Redroot pigweed plant response rating,[11]; [17],4
same,"Plant response rating, Redroot pigweed",[11]; [18],4
same,"Plant response rating, Redroot pigweed",[11]; [20],7
same,Corn plant response rating,[12]; [17],0
same,"Plant response rating, Corn",[12]; [18],0
same,"Plant response rating, Corn",[12]; [19],0
same,"Plant response rating, Corn",[12]; [20],0
same,Bedstraw plant response rating,[13]; [17],0
same,"Plant response rating, Bedstraw",[13]; [18],0
same,"Plant response rating, Bedstraw",[13]; [19],0
same,"Plant response rating, Bedstraw",[13]; [20],0
same,Sugarbeets plant response rating,[14]; [17],0
same,"Plant response rating, Sugarbeets",[14]; [18],0
same,"Plant response rating, Sugarbeets",[14]; [20],7
same,Giant foxtail plant response rating,[15]; [17],9
same,"Plant response rating, Giant foxtail",[15]; [18],10
same,"Plant response rating, Giant foxtail",[15]; [20],10
same,Velvetleaf plant response rating,[16]; [17],0
same,"Plant response rating, Velvetleaf",[16]; [18],0
same,"Plant response rating, Velvetleaf",[16]; [20],0
